The values that follow come from a melting point compilation (Tetko et al.; mined from patent text by program, amines drawn as free bases though some values may be those of a salt).

Bounds are passed on as bounds.

One may read the melting point as the temperature of the solid-liquid transition. Compound `Cc1c(-c2ccc(Cl)cc2Cl)nn(C)c1S(C)(=O)=O` came in with a melting point of 110 to 112 °C.
The result for `CC(C)NCCc1ccc(O)cc1` reads 102 to 104 °C; that for `COC(=O)C(C)Oc1ccc(OCc2ccccc2)cc1` (centres undefined), 63 to 65 °C.
In turn, `CC(NC(=S)NCC(COC(=O)C(C)(C)C)Cc1ccc(C(C)(C)C)cc1)c1ccc(NS(C)(=O)=O)c(F)c1` (centres undefined) registered a melting point of 78 °C.
`COC(=O)c1ccc(Cc2cn(C)c3ccc(C=C(C)C(=O)O)cc23)c(OC)c1`: the melting point is 182 to 183 °C.
Take `O=C(O)CCSc1ccc(CNC(=O)C2Cc3ccccc3N2S(=O)(=O)c2ccc(-c3cccc(C(F)(F)F)c3)cc2)cc1` (centres undefined): the melting point was in the range of 77 to 81 °C.
With `O=[N+]([O-])C=C1SCCCN1S(=O)(=O)Cc1ccccc1` the figure was 140 to 141 °C.
The compound `CC1CCN(c2cc(-c3ncccn3)nc(Cl)c2-c2c(F)cccc2Cl)CC1` came in with a melting point of 129 °C.
As to `CCOC(=O)C1=C(c2ccc(-n3c(C)nc4cnccc43)cc2)NC(=O)NC1c1ccccc1Cl` (centres undefined), the melting point is greater than 300 °C.
For `CN1CC2CC1CN2c1cncc(Cl)n1` (centres undefined), the melting point fell in the range of 125 to 126 °C.
The result for `CCCCN=C(c1cc(Cl)ccc1O)c1ccccc1Cl` reads 49.6 °C; that for `Oc1c(C2=CCCCC2)ccc2ccccc12`, 82 to 83 °C.
`CCCCCCOc1ccc(-c2ccccc2)cc1`: the melting point lay in the range of 61 to 62 °C.
With `O=C(O)c1ccc(CCCC2SCC(=O)N2CC#CC2(O)CCCCC2)cc1` (centres undefined) the figure was 112 to 115 °C; with `Cc1cc(O)n(C2CCCCC2)n1`, 153 °C; with `Cc1cc(SC(Sc2cc(C)c(O)c(C(C)(C)C)c2)Sc2cc(C)c(O)c(C(C)(C)C)c2)cc(C(C)(C)C)c1O`, 171 to 172 °C.
`Nc1cccc2cncc(Br)c12` yielded a melting point of 155 °C.
Turning to `COC(=O)C1C(=O)CC2CCC1N2C` (mixture of isomers), the melting point is 104 to 107 °C.
On to `Cc1cc2c(-c3ccccc3F)nc(=O)[nH]c2s1`, for which the melting point lay in the range of 282 to 284 °C.
Take `Cc1ccc(-c2nccc(-c3cccc(C(=O)O)c3)n2)cc1`: the melting point is 225 to 226 °C.
Consider `CC(C)CC[C@@H]1[C@H](c2ccccc2)OC(=O)N1CCCN1CCCCC1` (racemic), for which the melting point was 111 to 112 °C.
`CCOCc1nc2c(N)nc3ccccc3c2n1Cc1cc(-c2ccccc2)on1` yielded a melting point of 221 to 223 °C.
Consider `CCN(Cc1nc2cc(OC)c(OC)cc2c(-c2ccc(OC)c(OC)c2)c1C(C)=O)C(C)(C)C`, for which the melting point lay within 156 to 157 °C.
Take `CCN(CC)C(=O)/C=C/c1ccc(Cn2c(-c3ccc(O)cc3)c(C)c3cc(O)ccc32)cc1`: the melting point is 160 to 165 °C.
On to `COC(=O)CNC(=O)c1cccc(NC(=O)CCl)c1`, for which the melting point lay in the range of 122 to 124 °C.
`CCN(CC)CCOC(=O)c1cc2cc(Br)ccc2nn1` came in with a melting point of 90 to 93 °C.
`Cc1c(NC(=O)CC(C)(C)C)c(C)c2c(-c3ccc(C(C)C)cc3)coc2c1C` had a melting point of 229 to 230 °C.
With `NC(=O)c1cnc2sccc2c1Cl`, the melting point fell in the range of 159 to 160 °C.
In turn, `CCOc1cccc(COc2ccc3c(c2)C=C(C(=O)Nc2ccc(CN(C)C4CCOCC4)cc2)CCS3(=O)=O)c1` returned a melting point of 189 to 192 °C.
Consider `COc1nc(C)nc(NC(=O)NS(=O)(=O)c2ccccc2OCC2(C)OCCO2)n1`, for which the melting point was in the range of 135 to 136 °C.
For `CCCCCc1ccc(S(=O)(=O)n2c(CCC(=O)O)cc3cc(Cl)ccc32)cc1`, the melting point was 131 to 134 °C.
The result for `Cc1cc(F)ccc1-c1cscc1-c1ccc(S(C)(=O)=O)cc1` reads 158 to 160 °C; that for `CNS(=O)(=O)c1cnc2ccc(OC)cc2c1O`, 293 to 294 °C; that for `Cc1cc(C)c2c(c1C)OC(C)(CBr)C2` (centres undefined), 39 to 40 °C.
`COc1ccc2c(c1)OC=C(C(=O)N1CCN(C(c3ccc(F)cc3)c3ccc(F)cc3)CC1)O2` registered a melting point of 65 °C.
The result for `CC(C#N)(c1ccc(F)cc1)c1ccc([N+](=O)[O-])cc1Cl` (centres undefined) reads 133 °C; that for `CCCC(NS(=O)(=O)c1ccc(Cl)cc1)C(=O)NN` (centres undefined), 120 °C.
For the compound `COC=C(C(=O)OC)c1ccccc1[C@@H]1O[C@H]1c1ccccc1` (relative stereo), the melting point was in the range of 110 to 113 °C.
The compound `CS(=O)(=O)CCCCC(C1CCCCC1)S(=O)(=O)c1ccc(Cl)cc1` (centres undefined) registered a melting point of 104 to 106 °C.
The compound `Cc1cc(-c2cc(C(F)(F)F)[nH]n2)c(F)cc1Cl` yielded a melting point of 159 °C.
The compound `COc1ccc(CN([C@@H](CO)c2ccccc2)S(=O)(=O)c2ccc(Cl)cc2)cc1C(=O)O` yielded a melting point of 79 to 80 °C.
Compound `COC(=O)C1CC(O)CN1C(=O)c1ccc(OC)c(OC)c1` (centres undefined) had a melting point of 174 °C.
`COc1ccc([C@H](CC(=O)O)n2ccn(CCCc3ccc4c(n3)NCCC4)c2=O)cn1` had a melting point of 123 °C.
The result for `Cc1c2ccccc2c(O[Si](C)(C)C(C)(C)C)c2occ(CCC=O)c12` reads 152 to 154 °C; that for `Cc1cnc2c(c1)CCCC2S(=O)(=O)c1ccccc1` (centres undefined), 84 to 86 °C.
The compound `COc1cc(OC)cc(-n2c(-c3ccccc3)cc(=O)c(C)c2-c2ccccc2)c1` had a melting point of 232 to 236 °C.
Turning to `COc1ccc(N2CCCn3c2nc2c(Cl)ccc(C(OC(F)F)C(F)(F)F)c23)c(C)c1` (centres undefined), the melting point fell in the range of 178 to 182 °C.
With `CN(C)Cc1cc(CCCCCCCOc2ccc(C3=NCCO3)cc2)on1` the figure was 69.5 to 70 °C.
Compound `Cc1cccc(C2=C(c3ccc(S(C)(=O)=O)cc3)CN(C)C2=O)c1` registered a melting point of 163 to 165 °C.
With `CCOC(=O)c1c(C(F)(F)F)nc(C(F)F)c(C(=O)OC)c1C1CC1` the figure was 49 to 52 °C.
`CCOC(=O)C1CCn2c(cc3ccccc32)C1` (centres undefined): the melting point lay within 70 to 72 °C.
`O=C(O)c1ccc(C=CC(=O)c2ccc(O)cc2)cc1` showed a melting point of 300 to 302 °C.
Regarding `C=CCn1c(SC(Cl)=C(Cl)C#N)nnc1C(F)(F)F`, the melting point fell in the range of 45 to 48 °C.
`COc1cc(C(=O)CBr)cc(OC)c1OC`: the melting point is 61 to 62 °C.
`O=c1c2c(Cl)cc(Cl)cc2n(Cc2ccccc2)c(=O)n1Cc1ccc(Br)cc1`: the melting point is 163 to 168 °C.
For `CC1CCC(=NNc2ccccc2)c2nccc(=O)n21` (centres undefined), the melting point lay within 163 to 164 °C.
`CCCCC[N+]([O-])=[N+]([O-])CC` showed a melting point of 184 to 185 °C.
For `O=C(O)c1cn(C2CC2)c2nc(N3CCC(n4ccnn4)CC3)c(F)cc2c1=O`, the melting point is 246 to 248 °C.
For the compound `O=C(c1ccn2c1CSC2c1cccnc1)c1cn(CCO)c2cc(-c3ccc(F)cc3)ccc12` (centres undefined), the melting point lay within 170 to 171 °C.
As to `CC(C)(OCCN1C(=O)c2ccccc2C1=O)OCCN1C(=O)c2ccccc2C1=O`, the melting point was 139 to 141 °C.
As to `N#Cc1c(N2CCN(C(=O)c3cccs3)CC2)c2sccc2[nH]c1=O`, the melting point turned out to be 293 °C.
For `Nc1nnc(-c2ccc3occ(-c4ccccc4Cl)c3c2)o1`, the melting point is 220 to 221 °C.
In turn, `Cc1c(-c2ccc(O)cc2)sc(C=NO)c1-c1ccc(O)cc1` gave a melting point of 233 to 234 °C.
In the case of `COC(=O)CCc1cc2cc(Br)ccc2n1S(=O)(=O)c1ccccc1`, the melting point fell in the range of 109 to 113 °C.
`CC(CC(C)C1CCC2C3C(=O)CC4CC(=O)CCC4(C)C3CCC12C)C(=O)O` (centres undefined): the melting point turned out to be 119 °C.
Compound `N#Cc1nn(-c2c(Cl)cc(C(F)(F)F)cc2Cl)c(N)c1C#N` registered a melting point of 221 to 222 °C.
`Nc1nc2c(sc(=O)n2C/C=C\CCl)c(=O)[nH]1`: the melting point fell in the range of 200 to 202 °C.
`CCOC(=O)Oc1ccc2nc(S)n(C)c(=O)c2c1` registered a melting point of 216 to 220 °C.
For the compound `CC(C)c1ccc(-c2coc3cc(O)c(O)cc3c2=O)cc1`, the melting point lay in the range of 181 to 182 °C.
The result for `CCOCc1nc2c(N)nc3ccccc3c2n1CC1(NC(C)=O)CCCCC1` reads 178 to 180 °C.
For `COc1ccc(Oc2c(Br)cc(C=O)cc2[N+](=O)[O-])cc1Cc1ccc(=O)[nH]n1`, the melting point fell in the range of 188 to 190 °C.
In turn, `CCSc1c(C(F)(F)F)nn(-c2c(Cl)cc(C(F)(F)F)cc2Cl)c1N` showed a melting point of 116 °C.
`CC(C)(C)c1cc(Cl)c(O)c(C=O)c1`: the melting point lay within 75 to 77 °C.
In turn, `CCOC1(OCC)OC(C)=C(C(=O)OC)[C@@H](NC(C)=O)[C@@H]1C` (relative stereo) had a melting point of 87 to 88 °C.
Turning to `COC(=O)C(=Cc1ccc(OCCc2nc(-c3ccccc3)oc2C)cc1)C(=O)OC`, the melting point was 104 to 105 °C.
In the case of `COc1cccc2sc(NC(=O)COC(C)=O)nc12`, the melting point lay in the range of 161 to 162 °C.
`O=S(=O)(Nc1cccc(CCOCc2noc(-c3ccc(C(F)(F)F)cc3)n2)c1)C(F)(F)F` returned a melting point of 83 to 86 °C.
Consider `COc1cccc2c1c(=O)oc(=O)n2C`, for which the melting point amounted to 216 °C.
On to `O=C(C#Cc1ccc(C(F)(F)F)cc1Cl)Nc1ccc2nc(N3CCCCC3)ccc2c1`, for which the melting point lay within 176 to 179 °C.
`C=CCC1(SC(C)=O)C(C)(C)c2ccccc2C1(C)C`: the melting point was in the range of 65 to 67 °C.
`CC(=O)N(CCN1CCOCC1)C(C)C1(c2ccc(Cl)c(Cl)c2)CCC1` (centres undefined) showed a melting point of 121 to 122 °C.
With `COc1c(O)ccc(C(=O)c2ccccc2)c1[N+](=O)[O-]`, the melting point fell in the range of 169 to 171 °C.
`CN1CCCc2cccc(CS(=O)c3nc4ccccc4[nH]3)c21` (centres undefined): the melting point is 112 to 113 °C.
With `O=c1c(O)coc2ccccc12` the figure was 178 to 179 °C; with `Oc1ccc(-c2[nH]c3ccccc3c2Cn2ccnc2)cc1`, 245 to 247 °C; with `CCOC(=O)COc1ccc(Cc2ccc(O)cc2)c(Cl)c1Cl`, 102 to 103 °C.
`CCCCCCCCCCCCCCCCCCOc1cc(N)cc(C(=O)N(CC(=O)O)CC(=O)O)c1` gave a melting point of 108 to 120 °C.
Compound `CCOc1nn(Cc2ccc(OCc3cn4c(-c5ccccc5)cccc4n3)cc2)cc1CCC(=O)O` yielded a melting point of 160 to 161 °C.
As for `Cc1ccc(-c2cc(C#N)c[nH]2)cc1`, the melting point is 169 to 171 °C.
